Conditions: 283.15 K, Liquid, Vibrating tube method

CCCC(=O)OCC(COC(=O)CCC)(COC(=O)CCC)COC(=O)CCC [pentaerythritol tetrabutyrate]
Conditions | mass density [kg/m3]
5069.8 kPa | 1062.1
5785 kPa | 1062.4
5790.3 kPa | 1062.5
5796.4 kPa | 1062.5
6791.4 kPa | 1063
7204.6 kPa | 1063.2
7259.3 kPa | 1063.3
7320.1 kPa | 1063.4
7411.4 kPa | 1063.4
7437.1 kPa | 1063.4
7462.9 kPa | 1063.3
7545.9 kPa | 1063.4
7572.6 kPa | 1063.5
7606 kPa | 1063.5
7632.9 kPa | 1063.5
7657.7 kPa | 1063.5
7681.7 kPa | 1063.5
7710.4 kPa | 1063.4
7734.6 kPa | 1063.6
8293.1 kPa | 1063.8
11358 kPa | 1065.7
11377 kPa | 1065.7
11399 kPa | 1065.7
11419 kPa | 1065.6
11438 kPa | 1065.6
11456 kPa | 1065.7
11667 kPa | 1065.7
11687 kPa | 1066
11708 kPa | 1065.9
11731 kPa | 1065.8
11751 kPa | 1065.9
11775 kPa | 1066
11795 kPa | 1066
11816 kPa | 1065.9
11836 kPa | 1065.9
11862 kPa | 1065.9
11882 kPa | 1065.9
11903 kPa | 1065.9
11928 kPa | 1066
11949 kPa | 1066
11995 kPa | 1065.9
12016 kPa | 1066
13152 kPa | 1066.7
13178 kPa | 1066.7
13234 kPa | 1066.6
13898 kPa | 1067.1
15509 kPa | 1068
15590 kPa | 1068
15620 kPa | 1068.1
15664 kPa | 1068.1
15701 kPa | 1068
15739 kPa | 1068
15784 kPa | 1068.2
15822 kPa | 1068.1
15860 kPa | 1068.2
15906 kPa | 1068.2
17727 kPa | 1069.2
17738 kPa | 1069.3
17748 kPa | 1069.2
17759 kPa | 1069.3
17769 kPa | 1069.2
17778 kPa | 1069.1
18091 kPa | 1069.4
18103 kPa | 1069.5
18112 kPa | 1069.4
18122 kPa | 1069.4
18135 kPa | 1069.5
18145 kPa | 1069.4
18166 kPa | 1069.5
18176 kPa | 1069.4
18264 kPa | 1069.5
18274 kPa | 1069.6
18296 kPa | 1069.4
18306 kPa | 1069.5
18318 kPa | 1069.6
18328 kPa | 1069.5
18338 kPa | 1069.5
18351 kPa | 1069.5
18864 kPa | 1069.8
18899 kPa | 1069.8
18956 kPa | 1069.9
18967 kPa | 1069.8
18980 kPa | 1069.6
18991 kPa | 1069.8
19143 kPa | 1069.9
19349 kPa | 1070.2
19360 kPa | 1070.1
19371 kPa | 1070.1
19383 kPa | 1070
19397 kPa | 1070.1
19419 kPa | 1070.1
19433 kPa | 1070.3
19458 kPa | 1070.2
19470 kPa | 1070.1
20345 kPa | 1070.6
20358 kPa | 1070.6
20371 kPa | 1070.7
20383 kPa | 1070.7
20398 kPa | 1070.7
20411 kPa | 1070.7
20426 kPa | 1070.8
20439 kPa | 1070.8
20452 kPa | 1070.6
20631 kPa | 1070.8
20647 kPa | 1070.9
20659 kPa | 1070.9
20673 kPa | 1070.8
20689 kPa | 1070.8
20702 kPa | 1070.8
20718 kPa | 1070.8
20731 kPa | 1070.8
20744 kPa | 1070.9
20757 kPa | 1070.9
20943 kPa | 1071
20960 kPa | 1071
20973 kPa | 1071
20987 kPa | 1071
21354 kPa | 1071.2
21371 kPa | 1071.2
21386 kPa | 1071.4
21583 kPa | 1071.3
21614 kPa | 1071.3
21629 kPa | 1071.5
21646 kPa | 1071.3
21661 kPa | 1071.2
21676 kPa | 1071.4
21691 kPa | 1071.4
21708 kPa | 1071.3
21738 kPa | 1071.4
21756 kPa | 1071.4
21770 kPa | 1071.4
21833 kPa | 1071.5
21848 kPa | 1071.5
21866 kPa | 1071.5
21881 kPa | 1071.5
21895 kPa | 1071.5
21910 kPa | 1071.5
21928 kPa | 1071.5
21943 kPa | 1071.7
21958 kPa | 1071.6
21976 kPa | 1071.6
21991 kPa | 1071.5
22008 kPa | 1071.6
22350 kPa | 1071.7
22366 kPa | 1071.8
22381 kPa | 1071.6
22400 kPa | 1071.8
22416 kPa | 1071.7
22432 kPa | 1071.7
22448 kPa | 1071.7
22467 kPa | 1071.7
22485 kPa | 1071.7
22500 kPa | 1071.8
22516 kPa | 1071.7
22535 kPa | 1071.9
22551 kPa | 1072
22567 kPa | 1071.8
22586 kPa | 1071.9
22602 kPa | 1071.9
22618 kPa | 1071.8
22634 kPa | 1071.9
22654 kPa | 1071.9
22670 kPa | 1072
22686 kPa | 1071.9
22706 kPa | 1071.9
22722 kPa | 1071.9
22738 kPa | 1071.9
22754 kPa | 1071.9
22774 kPa | 1071.9
22806 kPa | 1072
22894 kPa | 1072.1
22914 kPa | 1072
22930 kPa | 1072.1
22946 kPa | 1072
22964 kPa | 1072.1
22984 kPa | 1072
23000 kPa | 1072.1
23143 kPa | 1072.2
23160 kPa | 1072.1
23177 kPa | 1072.1
23197 kPa | 1072.2
23214 kPa | 1072.3
23231 kPa | 1072.3
23249 kPa | 1072.2
23286 kPa | 1072.2
23303 kPa | 1072.3
23324 kPa | 1072.2
23341 kPa | 1072.3
23358 kPa | 1072.2
23379 kPa | 1072.2
23396 kPa | 1072.3
23413 kPa | 1072.3
23731 kPa | 1072.5
23749 kPa | 1072.5
23882 kPa | 1072.6
23900 kPa | 1072.5
23921 kPa | 1072.6
23939 kPa | 1072.5
23958 kPa | 1072.7
23980 kPa | 1072.6
23998 kPa | 1072.5
24016 kPa | 1072.7
24272 kPa | 1072.8
24291 kPa | 1072.8
24313 kPa | 1072.8
24675 kPa | 1073
24694 kPa | 1073
24718 kPa | 1073
24737 kPa | 1073
24756 kPa | 1073
24780 kPa | 1073
24799 kPa | 1073.1
24819 kPa | 1073
24842 kPa | 1073.1
24862 kPa | 1073.1
24882 kPa | 1073.1
24902 kPa | 1073.1
24926 kPa | 1073.1
24945 kPa | 1073.1
24969 kPa | 1073.2
25008 kPa | 1073.3
25032 kPa | 1073.1
25052 kPa | 1073.1
25072 kPa | 1073.2
25092 kPa | 1073.2
25112 kPa | 1073.3
25136 kPa | 1073.2
25157 kPa | 1073.1
25182 kPa | 1073.3
25201 kPa | 1073.3
25225 kPa | 1073.2
25246 kPa | 1073.2
25266 kPa | 1073.3
25287 kPa | 1073.3
25311 kPa | 1073.3
25332 kPa | 1073.3
25353 kPa | 1073.3
25378 kPa | 1073.3
25399 kPa | 1073.4
25420 kPa | 1073.3
25441 kPa | 1073.3
25465 kPa | 1073.5
25486 kPa | 1073.3
25598 kPa | 1073.4
25620 kPa | 1073.5
25641 kPa | 1073.6
25666 kPa | 1073.5
25688 kPa | 1073.6
25710 kPa | 1073.5
25731 kPa | 1073.6
25757 kPa | 1073.5
25778 kPa | 1073.5
25799 kPa | 1073.5
25820 kPa | 1073.5
25846 kPa | 1073.6
25867 kPa | 1073.5
25889 kPa | 1073.7
25915 kPa | 1073.5
25936 kPa | 1073.6
25958 kPa | 1073.7
25985 kPa | 1073.7
26009 kPa | 1073.6
26031 kPa | 1073.7
26052 kPa | 1073.7
26074 kPa | 1073.8
26101 kPa | 1073.8
26122 kPa | 1073.6
26148 kPa | 1073.8
26170 kPa | 1073.8
26193 kPa | 1073.7
26219 kPa | 1073.8
26241 kPa | 1073.8
26264 kPa | 1073.8
26290 kPa | 1073.8
26313 kPa | 1073.8
26334 kPa | 1073.8
26361 kPa | 1073.8
26384 kPa | 1073.9
26406 kPa | 1073.8
26429 kPa | 1073.8
26456 kPa | 1074
26478 kPa | 1073.9
26501 kPa | 1073.8
26722 kPa | 1074
26740 kPa | 1074
26772 kPa | 1074.1
26796 kPa | 1074
26824 kPa | 1074.1
26848 kPa | 1074.1
26871 kPa | 1074.2
26899 kPa | 1074.2
26923 kPa | 1074

From the NIST ThermoML archive (doi:10.1021/je060271a)
